Results on ten compounds are retold here after ChEMBL document CHEMBL4118227, “Hexahydrobenzophenanthridine alkaloids from Corydalis bungeana Turcz. and their anti-inflammatory activity” (Bioorg Med Chem Lett, 2018).

pIC50: −log10 of the molar value.

The assay relates to RAW264.7. Kind of assay: Antiinflammatory activity against mouse RAW264.7 cells assessed as inhibition of LPS induced nitric oxide production preincubated for 2 hrs followed by LPS challenge measured after 24 hrs by Griess reagent based assay. It counts as functional, cell-based. On the technique in general: Nitrite, measured by Griess reagent, commonly stands in for NO production.

The pIC50 is −log10 of the IC50, conventionally taken in molar units.

On to `CC(=O)O[C@H]1Cc2cc3c(cc2[C@@H]2N(C)Cc4c(ccc5c4OCO5)[C@@]12C)OCO3`, for which the pIC50 is 6.00.

`COC(=O)C[C@H]1c2c(ccc3c2OCO3)[C@@]2(C)[C@@H](OC(C)=O)Cc3cc4c(cc3[C@H]2N1C)OCO4`: the pIC50 is 5.69.

Turning to `CC(=O)O[C@H]1Cc2cc3c(cc2[C@@H]2[C@@]1(C)c1ccc4c(c1C[N@@+]2(C)[O-])OCO4)OCO3`, the pIC50 is 5.65.

Regarding `COc1cc2c(cc1O)C1Cc3ccc4c(c3CN1CC2)OCO4` (stereo not given) [CHEILANTHIFOLINE], the pIC50 was 5.73.

Take `COC(=O)C[C@H]1c2c(ccc3c2OCO3)[C@@]2(C)[C@@H](OC(C)=O)Cc3cc4c(cc3[C@@H]2N1C)OCO4`: the pIC50 is 5.66.

Take `CN(C)c1ccc(O)c2c1C[C@H]1C[C@H]3[C@H](N(C)C)C(O)=C(C(N)=O)C(=O)[C@@]3(O)C(O)=C1C2=O` [MINOCYCLINE]: the pIC50 is 4.50.

`CC(=O)O[C@H]1Cc2cc3c(cc2[C@H]2N(C)Cc4c(ccc5c4OCO5)[C@@]12C)OCO3`: the pIC50 is 4.64.

As for `CN1Cc2c(ccc3c2OCO3)[C@@]2(C)[C@@H](O)Cc3cc4c(cc3[C@@H]12)OCO4`, the pIC50 is 5.60.

For `CC(=O)O[C@H]1Cc2cc3c(cc2[C@H]2[C@@]1(C)c1ccc4c(c1C[N@@+]2(C)[O-])OCO4)OCO3`, the pIC50 is 4.47.

As to `C[C@@]12c3ccc4c(c3C[N@@+](C)([O-])[C@H]1c1cc3c(cc1C[C@@H]2O)OCO3)OCO4`, the pIC50 is 5.55.
